{
  "source": "paper PMC10772347",
  "about": "(Cell Reports Medicine, 2023)",
  "key": {"NEK7 [1]": {"target": "NEK7 (Mus musculus, UniProt Q9ES74)", "sequence (Q9ES74 whole entry)": "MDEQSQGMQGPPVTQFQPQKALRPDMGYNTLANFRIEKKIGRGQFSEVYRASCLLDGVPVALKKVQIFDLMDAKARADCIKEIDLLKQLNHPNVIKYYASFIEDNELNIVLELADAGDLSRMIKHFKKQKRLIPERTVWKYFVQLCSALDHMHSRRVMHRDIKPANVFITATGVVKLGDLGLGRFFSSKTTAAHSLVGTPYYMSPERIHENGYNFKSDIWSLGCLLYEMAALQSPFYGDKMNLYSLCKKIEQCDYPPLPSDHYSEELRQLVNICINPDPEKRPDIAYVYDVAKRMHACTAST", "assay": "CETSA in BMDMs and DARTS in BMDM lysate", "type": "cell-based"}, "NEK7 [2]": {"target": "NEK7 (Homo sapiens, UniProt Q8TDX7)", "sequence (Q8TDX7 whole entry, looked up)": "as the sequence (Q9ES74 whole entry) above, with T14P, S52A, D150E, I273M, I285V, A286T, T302S counted along it", "assay": "DARTS", "type": "cell-based"}},
  "data": [
    {"smiles": "CN1CCN(c2ccc(C(=O)Nc3n[nH]c4ccc(Cc5cc(F)cc(F)c5)cc34)c(NC3CCOCC3)c2)CC1", "note": "[ENB, entrectinib]", "values": [
      {"measurement": "CETSA in BMDMs and DARTS in BMDM lysate (200 uM ENB)", "setting": "NEK7 [1]", "result": "ENB significantly enhanced the thermal stability of NEK7 even at higher temperatures compared with the DMSO-treated group"},
      {"measurement": "DARTS (pronase) in lysate of HEK293T cells overexpressing WT or mutant NEK7 (200)", "setting": "NEK7 [2]", "result": "R121A, but not I40A mutation, abolished NEK7 binding to ENB (Figure 4D), suggesting that ENB binds to R121 of NEK7"}
    ]}
  ]
}
